Test results: US20090054392A1, “NAPHTHYLPYRIMIDINE, NAPHTHYLPYRAZINE AND NAPHTHYLPYRIDAZINE ANALOGS AND THEIR USE AS AGONISTS OF THE WNT-BETA-CATENIN CELLULAR MESSAGING SYSTEM” (Wyeth, priority 2007, published 2009)
Where two headings read alike, the source gives them in different places.

System: Dkk1-LRP5-TCF-Luciferase
Assay: Functional Dkk1-LRP5-TCF-Luciferase Assay in U2OS Cells
Conditions: for fold induction at 2 µM: read-out: B = TCF ACTIVITY/DMSO CONTROL Fold induction @ 2.0 uM, 2.0 uM compound; for fold induction at 20 µM: read-out: C = TCF ACTIVITY/DMSO CONTROL Fold induction @ 20.0 uM, 20.0 uM compound; for A = MAX FOLD Induction/DMSO CONTROL: maximum fold induction over DMSO control

EC50 (Homo sapiens, U2OS) [µM] | A = MAX FOLD Induction/DMSO CONTROL [fold] | EC50 [µM] | SMILES | fold induction at 2 µM (Homo sapiens, U2OS) | fold induction at 20 µM (Homo sapiens, U2OS)
 |  |  | c1cncc(CCNc2nccc(-c3ccc4ccccc4c3)n2)c1 [4-(2-naphthyl)-N-(2-pyridin-3-ylethyl)pyrimidin-2-amine] | 1.15 | 1.04
 |  |  | CC(C)NC(=O)N1CCC(CNc2nccc(-c3ccc4ccccc4c3)n2)CC1 [N-isopropyl-4-({[4-(2-naphthyl)pyrimidin-2-yl]amino}methyl)piperidine-1-carboxamide] | 1.31 | 0.54
 |  |  | CCCCNc1nccc(-c2ccc3ccccc3c2)n1 [N-butyl-4-(2-naphthyl)pyrimidin-2-amine] | 1.51 | 
5.4 | 1.700 |  | CS(=O)(=O)NCCN1CCN(c2nccc(-c3ccc4ccccc4c3)n2)CC1 [N-(2-{4-[4-(2-naphthyl)pyrimidin-2-yl]piperazin-1-yl}ethyl)methanesulfonamide] | 1.31 | 1.93
 |  |  | CN(C)CCN(C)[C@H]1CCN(c2nccc(-c3ccc4ccccc4c3)n2)C1 [N,N,N′-trimethyl-N′-{(3S)-1-[4-(2-naphthyl)pyrimidin-2-yl]pyrrolidin-3-yl}ethane-1,2-diamine] | 1.2 | 
 | 2.115 |  | CN(C)[C@H]1CCN(C(=O)[C@H]2CCCN2c2nccc(-c3ccc4ccccc4c3)n2)C1 [(3S)—N,N-dimethyl-1-{1-[4-(2-naphthyl)pyrimidin-2-yl]-D-prolyl}pyrrolidin-3-amine] | 1.05 | 2.43
 |  |  | CN(CCN(C)[C@@H]1CCN(c2nccc(-c3ccc4ccccc4c3)n2)C1)C(=O)c1ccccc1 [N-methyl-N-[2-(methyl{(3R)-1-[4-(2-naphthyl)pyrimidin-2-yl]pyrrolidin-3-yl}amino)ethyl]benzamide] | 1.3 | 
3.88 | 7.510 |  | c1ccc2cc(-c3ccnc(NC[C@@H]4CCNC4)n3)ccc2c1 [4-(2-naphthyl)-N-[(3R)-pyrrolidin-3-ylmethyl]pyrimidin-2-amine] |  | 0.06
1.11 | 3.175 |  | CN(C)[C@H]1CCN([C@@H]2CCN(c3nccc(-c4ccc5ccccc5c4)n3)C2)C1 [(3S,3′R)-N,N-dimethyl-1′-[4-(2-naphthyl)pyrimidin-2-yl]-1,3′-bipyrrolidin-3-amine] | 2.64 | 
 |  |  | CCCNc1nccc(-c2ccc3ccccc3c2)n1 [4-(2-naphthyl)-N-propylpyrimidin-2-amine] | 1.28 | 
 |  |  | O=C([C@@H]1CCCN1c1nccc(-c2ccc3ccccc3c2)n1)N1CCCC1 [4-(2-naphthyl)-2-[(2S)-2-(pyrrolidin-1-ylcarbonyl)pyrrolidin-1-yl]pyrimidine] | 0.87 | 1.07
 |  |  | c1ccc(CCNc2nccc(-c3ccc4ccccc4c3)n2)cc1 [4-(2-naphthyl)-N-(2-phenylethyl)pyrimidin-2-amine] | 1.91 | 
 |  |  | CN(CCN(C)[C@@H]1CCN(c2nccc(-c3ccc4ccccc4c3)n2)C1)C(=O)C(F)(F)F [2,2,2-trifluoro-N-methyl-N-[2-(methyl{(3R)-1-[4-(2-naphthyl)pyrimidin-2-yl]pyrrolidin-3-yl}amino)ethyl]acetamide] | 1.5 | 
3.5 |  | 3.18 | c1ccc2cc(-c3ccnc(N4CCC(CN5CCCC5)CC4)n3)ccc2c1 [4-(2-naphthyl)-2-[4-(pyrrolidin-1-ylmethyl)piperidin-1-yl]pyrimidine] | 2.07 | 
7.67 | 6.053 |  | c1ccc2cc(-c3ccnc(N4CC[C@H](CN5CCCC5)C4)n3)ccc2c1 [4-(2-naphthyl)-2-[(3R)-3-(pyrrolidin-1-ylmethyl)pyrrolidin-1-yl]pyrimidine] | 1.5 | 6.07
23.8 | 2.120 |  | c1ccc2cc(-c3ccnc(NCCCN4CCOCC4)n3)ccc2c1 [N-(3-morpholin-4-ylpropyl)-4-(2-naphthyl)pyrimidin-2-amine] | 1.68 | 3.27
